According to the supplement of paper PMC10307832:

What was measured:
Assay in all cases: relative viability (nuclei count vs DMSO), 5 days (fraction); higher = more cells survive
[1] = system: COR-L 105
Procedure, shortened: (§1)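 Medians of duplicate plates are given as relative viability. That measure is the nuclei count in treated wells divided by the count in vehicle wells. Counts were taken on 4× images of lung cancer cell lines in 1536-well plates, 5 days after pin-tool dosing the day after seeding with one drug alone or a fixed anchor-drug dose plus five library-drug doses (not always all listed) in √10 steps.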

[2] = system: LCLC-103H
Procedure, shortened: as §1

[3] = system: LK-2
Procedure, shortened: as §1

[4] = system: NCI-H1355
Procedure, shortened: as §1

[5] = system: NCI-H1648
Procedure, shortened: as §1

[6] = system: NCI-H1666
Procedure, shortened: as §1

[7] = system: NCI-H520
Procedure, shortened: as §1

[8] = system: NCI-H522
Procedure, shortened: as §1

Work on `Nc1ccn([C@@H]2O[C@H](CO)[C@@H](O)[C@@H]2O)c(=O)n1` [Cytarabine] + CC(=O)Nc1cccc(-n2c(=O)n(C3CC3)c(=O)c3c(Nc4ccc(I)cc4F)n(C)c(=O)c(C)c32)c1 [Trametinib] (partner 0.02 µM) yielded a relative viability ([1]; first compound 0.005 µM) of 0.435, a relative viability ([1]; first compound 0.01581 µM) of 0.473 and a relative viability ([1]; first compound 0.05 µM) of 0.438. The relative viability ([1]; first compound 0.1581 µM) was 0.315, the relative viability ([1]; first compound 0.5 µM) was 0.302 and the relative viability ([2]; first compound 0.005 µM) was 0.692. For the same molecule, the relative viability ([2]; first compound 0.01581 µM) was 0.687, the relative viability ([2]; first compound 0.05 µM) was 0.671 and the relative viability ([2]; first compound 0.1581 µM) was 0.682. The relative viability ([2]; first compound 0.5 µM) was 0.742, the relative viability ([3]; first compound 0.005 µM) was 1.01 and the relative viability ([3]; first compound 0.01581 µM) was 0.701. The relative viability ([3]; first compound 0.05 µM) was 0.479, the relative viability ([3]; first compound 0.1581 µM) was 0.226 and the relative viability ([3]; first compound 0.5 µM) was 0.268. It also gave a relative viability ([4]; first compound 0.005 µM) of 0.367, a relative viability ([4]; first compound 0.01581 µM) of 0.38 and a relative viability ([4]; first compound 0.05 µM) of 0.398. For the same molecule, the relative viability ([4]; first compound 0.1581 µM) was 0.303, the relative viability ([4]; first compound 0.5 µM) was 0.282 and the relative viability ([5]; first compound 0.005 µM) was 0.419. The relative viability ([5]; first compound 0.01581 µM) was 0.4, the relative viability ([5]; first compound 0.05 µM) was 0.44 and the relative viability ([5]; first compound 0.1581 µM) was 0.36. For the same molecule, the relative viability ([5]; first compound 0.5 µM) was 0.373, the relative viability ([6]; first compound 0.005 µM) was 0.806 and the relative viability ([6]; first compound 0.01581 µM) was 0.728. It also gave a relative viability ([6]; first compound 0.05 µM) of 0.76, a relative viability ([6]; first compound 0.1581 µM) of 0.646 and a relative viability ([6]; first compound 0.5 µM) of 0.592. It also gave a relative viability ([7]; first compound 0.005 µM) of 0.696, a relative viability ([7]; first compound 0.01581 µM) of 0.684 and a relative viability ([7]; first compound 0.05 µM) of 0.579. The relative viability ([7]; first compound 0.1581 µM) was 0.477, the relative viability ([7]; first compound 0.5 µM) was 0.484 and the relative viability ([8]; first compound 0.005 µM) was 0.823. For the same molecule, the relative viability ([8]; first compound 0.01581 µM) was 0.75, the relative viability ([8]; first compound 0.05 µM) was 0.65 and the relative viability ([8]; first compound 0.1581 µM) was 0.589. For the same molecule, the relative viability ([8]; first compound 0.5 µM) was 0.515.
